# Results as given in PubChem BioAssay (NCI).
#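 At the GI50, growth is halved. TGI: concentration producing complete growth inhibition.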
# What was measured:
# Experiment in all cases: inhibition of tumour cell growth, NCI panel, 384-well format
# IGROV1 ovarian = tested on: IGROV1 ovarian
# NCI/ADR-RES ovarian = tested on: NCI/ADR-RES ovarian
# NCI-H522 lung = tested on: NCI-H522 lung
# RXF 393 renal = tested on: RXF 393 renal
# OVCAR-3 ovarian = tested on: OVCAR-3 ovarian
# BT-549 breast = tested on: BT-549 breast
# SK-MEL-5 melanoma = tested on: SK-MEL-5 melanoma
# MALME-3M melanoma = tested on: MALME-3M melanoma
# NCI-H23 lung = tested on: NCI-H23 lung
# SNB-75 CNS = tested on: SNB-75 CNS
# U251 glioblastoma = tested on: U251 glioblastoma
# NCI-H322M lung = tested on: NCI-H322M lung
# HOP-92 NSCLC = tested on: HOP-92 NSCLC
# SF-539 CNS = tested on: SF-539 CNS
# TK-10 renal = tested on: TK-10 renal
# SN12C renal = tested on: SN12C renal
# SW-620 colon = tested on: SW-620 colon
# K-562 leukemia = tested on: K-562 leukemia
# HS 578T breast = tested on: HS 578T breast
# SNB-19 CNS = tested on: SNB-19 CNS
# UO-31 renal = tested on: UO-31 renal
# 786-0 renal = tested on: 786-0 renal
# HT29 colon = tested on: HT29 colon
# HL-60(TB) leukemia = tested on: HL-60(TB) leukemia
# LOX IMVI melanoma = tested on: LOX IMVI melanoma
# A498 renal = tested on: A498 renal
# SF-268 CNS = tested on: SF-268 CNS
# M14 melanoma = tested on: M14 melanoma
# SR leukemia = tested on: SR leukemia
# A549 NSCLC = tested on: A549 NSCLC
# MDA-MB-231 breast = tested on: MDA-MB-231 breast
# SK-OV-3 ovarian = tested on: SK-OV-3 ovarian
# NCI-H460 NSCLC = tested on: NCI-H460 NSCLC
# CCRF-CEM leukemia = tested on: CCRF-CEM leukemia
# T-47D breast = tested on: T-47D breast
# HCC-2998 colon = tested on: HCC-2998 colon
# KM12 colon = tested on: KM12 colon
# SK-MEL-28 melanoma = tested on: SK-MEL-28 melanoma
# SF-295 CNS = tested on: SF-295 CNS
# HOP-62 NSCLC = tested on: HOP-62 NSCLC
# OVCAR-8 ovarian = tested on: OVCAR-8 ovarian
# PC-3 prostate = tested on: PC-3 prostate
# HCT-15 colon = tested on: HCT-15 colon
# MOLT-4 leukemia = tested on: MOLT-4 leukemia
# COLO 205 colon = tested on: COLO 205 colon
# MDA-MB-468 breast = tested on: MDA-MB-468 breast
# ACHN renal = tested on: ACHN renal
# MCF7 breast = tested on: MCF7 breast
# UACC-62 melanoma = tested on: UACC-62 melanoma
# OVCAR-4 ovarian = tested on: OVCAR-4 ovarian
# CAKI-1 renal = tested on: CAKI-1 renal
# RPMI-8226 leukemia = tested on: RPMI-8226 leukemia
# NCI-H226 lung = tested on: NCI-H226 lung
# OVCAR-5 ovarian = tested on: OVCAR-5 ovarian
# EKVX NSCLC = tested on: EKVX NSCLC
# MDA-MB-435 melanoma = tested on: MDA-MB-435 melanoma
# UACC-257 melanoma = tested on: UACC-257 melanoma
# DU-145 prostate = tested on: DU-145 prostate
smiles,measurement,setting,value
CCN1CCN(Cc2ccc(-c3cc4c(N[C@H](C)c5ccccc5)ncnc4[nH]3)cc2)CC1,GI50,IGROV1 ovarian,120 nM
same,TGI,IGROV1 ovarian,695 nM
same,GI50,NCI/ADR-RES ovarian,2020 nM
same,TGI,NCI/ADR-RES ovarian,6110 nM
same,GI50,NCI-H522 lung,111 nM
same,TGI,NCI-H522 lung,1320 nM
same,GI50,RXF 393 renal,1420 nM
same,TGI,RXF 393 renal,2810 nM
same,GI50,OVCAR-3 ovarian,1320 nM
same,TGI,OVCAR-3 ovarian,5360 nM
same,GI50,BT-549 breast,1590 nM
same,TGI,BT-549 breast,3140 nM
same,GI50,SK-MEL-5 melanoma,1530 nM
same,TGI,SK-MEL-5 melanoma,2870 nM
same,GI50,MALME-3M melanoma,1380 nM
same,TGI,MALME-3M melanoma,2680 nM
same,GI50,NCI-H23 lung,1520 nM
same,TGI,NCI-H23 lung,3940 nM
same,GI50,SNB-75 CNS,2040 nM
same,TGI,SNB-75 CNS,5980 nM
same,GI50,U251 glioblastoma,1800 nM
same,TGI,U251 glioblastoma,3620 nM
same,GI50,NCI-H322M lung,51.7 nM
same,TGI,NCI-H322M lung,1130 nM
same,GI50,HOP-92 NSCLC,1260 nM
same,TGI,HOP-92 NSCLC,2640 nM
same,GI50,SF-539 CNS,1560 nM
same,TGI,SF-539 CNS,2910 nM
same,GI50,TK-10 renal,389 nM
same,TGI,TK-10 renal,2040 nM
same,GI50,SN12C renal,203 nM
same,TGI,SN12C renal,2070 nM
same,GI50,SW-620 colon,1770 nM
same,TGI,SW-620 colon,3510 nM
same,GI50,K-562 leukemia,217 nM
same,TGI,K-562 leukemia,550 nM
same,GI50,HS 578T breast,1480 nM
same,TGI,HS 578T breast,2830 nM
same,GI50,SNB-19 CNS,2460 nM
same,TGI,SNB-19 CNS,11600 nM
same,GI50,UO-31 renal,1330 nM
same,TGI,UO-31 renal,11900 nM
same,GI50,786-0 renal,1070 nM
same,TGI,786-0 renal,2280 nM
same,GI50,HT29 colon,1450 nM
same,TGI,HT29 colon,2930 nM
same,GI50,HL-60(TB) leukemia,1660 nM
same,TGI,HL-60(TB) leukemia,3020 nM
same,GI50,LOX IMVI melanoma,1570 nM
same,TGI,LOX IMVI melanoma,2910 nM
same,GI50,A498 renal,1220 nM
same,TGI,A498 renal,2610 nM
same,GI50,SF-268 CNS,1490 nM
same,TGI,SF-268 CNS,3350 nM
same,GI50,M14 melanoma,1590 nM
same,TGI,M14 melanoma,2950 nM
same,GI50,SR leukemia,1760 nM
same,TGI,SR leukemia,3150 nM
same,GI50,A549 NSCLC,1060 nM
same,TGI,A549 NSCLC,3520 nM
same,GI50,MDA-MB-231 breast,1560 nM
same,TGI,MDA-MB-231 breast,3640 nM
same,GI50,SK-OV-3 ovarian,349 nM
same,TGI,SK-OV-3 ovarian,1710 nM
same,GI50,NCI-H460 NSCLC,1750 nM
same,TGI,NCI-H460 NSCLC,3570 nM
same,GI50,CCRF-CEM leukemia,1830 nM
same,TGI,CCRF-CEM leukemia,3230 nM
same,GI50,T-47D breast,439 nM
same,TGI,T-47D breast,2590 nM
same,GI50,HCC-2998 colon,1560 nM
same,TGI,HCC-2998 colon,3040 nM
same,GI50,KM12 colon,1920 nM
same,TGI,KM12 colon,4070 nM
same,GI50,SK-MEL-28 melanoma,1590 nM
same,TGI,SK-MEL-28 melanoma,2940 nM
same,GI50,SF-295 CNS,1710 nM
same,TGI,SF-295 CNS,3230 nM
same,GI50,HOP-62 NSCLC,1660 nM
same,TGI,HOP-62 NSCLC,3310 nM
same,GI50,OVCAR-8 ovarian,1570 nM
same,TGI,OVCAR-8 ovarian,3740 nM
same,GI50,PC-3 prostate,1850 nM
same,TGI,PC-3 prostate,8640 nM
same,GI50,HCT-15 colon,1360 nM
same,TGI,HCT-15 colon,2750 nM
same,GI50,MOLT-4 leukemia,1340 nM
same,TGI,MOLT-4 leukemia,2620 nM
same,GI50,COLO 205 colon,1780 nM
same,TGI,COLO 205 colon,3290 nM
same,GI50,MDA-MB-468 breast,22.7 nM
same,TGI,MDA-MB-468 breast,60 nM
same,GI50,ACHN renal,89 nM
same,TGI,ACHN renal,1520 nM
same,GI50,MCF7 breast,1490 nM
same,TGI,MCF7 breast,2970 nM
same,GI50,UACC-62 melanoma,1620 nM
same,TGI,UACC-62 melanoma,3000 nM
same,GI50,OVCAR-4 ovarian,1560 nM
same,TGI,OVCAR-4 ovarian,5250 nM
same,GI50,CAKI-1 renal,299 nM
same,TGI,CAKI-1 renal,1880 nM
same,GI50,RPMI-8226 leukemia,1280 nM
same,TGI,RPMI-8226 leukemia,2550 nM
same,GI50,NCI-H226 lung,1100 nM
same,TGI,NCI-H226 lung,4440 nM
same,GI50,OVCAR-5 ovarian,440 nM
same,TGI,OVCAR-5 ovarian,2790 nM
same,GI50,EKVX NSCLC,91.2 nM
same,TGI,EKVX NSCLC,2340 nM
same,GI50,MDA-MB-435 melanoma,1620 nM
same,TGI,MDA-MB-435 melanoma,3040 nM
same,GI50,UACC-257 melanoma,1360 nM
same,TGI,UACC-257 melanoma,2640 nM
same,GI50,DU-145 prostate,1540 nM
same,TGI,DU-145 prostate,10800 nM
